Experimental data from US20230157952A1, “METHOD FOR IMPROVING THE STABILITY OF A PHARMACEUTICAL COMPOSITION COMPRISING A HIGH PENETRATION DRUG, AND THE PHARMACEUTICAL COMPOSITION OBTAINED THEREFROM” (Techfields Inc., priority 2020, published 2023).
Non-standard residues stand in square brackets, D forms with d. *: point of attachment. Arg(NO2) = N=C(NCCC[C@H](N)C(=O)O)N[N+](=O)[O-]; OiPr = CC(C)O*

Experiments:
Type in all cases: physicochemical
[1] = Stability of the pure HPDs (dry solid) at 25° C./RH 60%; details: for Purity: pure HPD, 25° C./RH 60%
[2] = Effect of temperature (and pH) on the stability of the solution (purity); details: 5% solution with 1 equivalent sodium acetate in 25% ethanol, pH 4.49-4.51
[3] = Effect of pH value on the stability of the solution (purity); details: 25° C.
[4] = pure HPD at 25° C./RH 60%, in % (unit assumed)
[5] = day 28, pH 1.0, 7% solution in water
[6] = day 28, pH 2.0, 7% solution in water
[7] = day 28, pH 3.0, 7% solution in water
[8] = day 28, pH 3.7, 7% solution in water
[9] = day 28, pH 5.0, 7% solution in water
[10] = day 28, pH 6.0, 7% solution in water
[11] = day 28, pH 7.0, 7% solution in water
[12] = day 28, pH 8.0, 7% solution in water

`CCN(CC)CCOC(=O)[C@@H](C)c1ccc(-c2ccccc2)c(F)c1.Cl` [B-1-2, 2-(diethylamino)ethyl (S)-2-(2-fluoro-4-biphenyl)propionate•HCl salt] showed a Purity ([1]; 3 month) of 98.6 ± 0.1 and a Purity ([1]; Day 0) of 98.7 ± 0.2.

In the case of “H-Ala-Pro-Gly-Pro-Arg(NO2)—OCH(CH3)2•HCl (H-APGP[Arg(NO2)]-OiPr; also: HCl salt) [T-2]”, the “Purity at 3 month” value [1, 4] is reported as 98.9 ± 0.3, the “Purity at 6 month” value [1, 4] is reported as 98.6 ± 0.2 and the “Purity at 9 month” value [1, 4] is reported as 98.6 ± 0.3. The “Purity at 12 month” value [1, 4] was 98.5 ± 0.2, the “Purity at 18 month” value [1, 4] was 98.5 ± 0.2 and the “Purity at 24 month” value [1, 4] was 98.4 ± 0.2. The “Purity at Day 0” value [1, 4] was 98.9 ± 0.1, the “Stability of the pure powder” value ([1]; room temperature (25° C./RH 60%)) was “very stable” and the “Purity (%) at day 30 (60° C.)” value [2] was 32.8 ± 0.2%. For the same molecule, the “Purity (%) at day 90 (60° C.)” value [2] was 0%, the “Purity (%) at day 180 (60° C.)” value [2] was 0% and the “Purity (%) at day 360 (60° C.)” value [2] was 0%. For the same molecule, the “Purity(%) at day 0” value [2] was 98.9 ± 0.2%, the “Purity(%) at day 30 (5° C.)” value [2] was 98.8 ± 0.2% and the “Purity(%) at day 30 (25° C.)” value [2] was 97.8 ± 0.3%. For the same molecule, the “Purity(%) at day 30 (40° C.)” value [2] was 71.3 ± 0.2%, the “Purity(%) at day 90 (5° C.)” value [2] was 98.5 ± 0.3% and the “Purity(%) at day 90 (25° C.)” value [2] was 97.0 ± 0.2%. The “Purity(%) at day 90 (40° C.)” value [2] was 33.6 ± 0.2%, the “Purity(%) at day 180 (5° C.)” value [2] was 97.8 ± 0.2% and the “Purity(%) at day 180 (25° C.)” value [2] was 95.2 ± 0.3%. The “Purity(%) at day 180 (40° C.)” value [2] was 13.6 ± 0.2%, the “Purity(%) at day 360 (5° C.)” value [2] was 97.4 ± 0.3% and the “Purity(%) at day 360 (25° C.)” value [2] was 92.3 ± 0.3%. The “Purity(%) at day 360 (40° C.)” value [2] was 0%.

For `Br.CCN(CC)CCOC(=O)C(C)c1ccc2cc(OC)ccc2c1` (racemic) [C-2, 2-(diethylamino)ethyl (R,S)-2-(6-methoxy-2-naphthyl) propionate•HBr salt], the “Purity(%) from day 0-28” value [3, 5] was 69.7 ± 0.3%, the “Purity(%) from day 0-28” value [3, 6] was 80.1 ± 0.3% and the “Purity(%) from day 0-28” value [3, 7] was 90.7 ± 0.3%. For the same molecule, the “Purity(%) from day 0-28” value [3, 8] was 97.1 ± 0.3%, the “Purity(%) from day 0-28” value [3, 9] was 96.5 ± 0.3% and the “Purity(%) from day 0-28” value [3, 10] was 89.0 ± 0.4%. For the same molecule, the “Purity(%) from day 0-28” value [3, 11] was 65.5 ± 0.3%, the “Purity(%) from day 0-28” value [3, 12] was 45.5 ± 0.5% and the Purity ([1]; 3 month, listed as A-1-4) was 98.9 ± 0.1. It also gave a Purity ([1]; 6 month, listed as A-1-4) of 98.6 ± 0.4, a Purity ([1]; 9 month) of 98.1 ± 0.1 and a Purity ([1]; 18 month) of 97.9 ± 0.3. It also gave a Purity ([1]; 24 month) of 97.7 ± 0.4, a Purity ([1]; 24 month, listed as A-1-4) of 98.0 ± 0.4 and a Purity ([1]; Day 0, listed as A-1-4) of 98.6 ± 0.3.

For `CCN(CC)CCOC(=O)[C@@H](C)c1ccc2cc(OC)ccc2c1.Cl` [A-1-2, 2-(diethylamino)ethyl (S)-2-(6-methoxy-2-naphthyl) propionate•HCl salt], the Purity ([1]; 24 month) was 98.0 ± 0.1 and the Purity ([1]; Day 0) was 98.6 ± 0.3.

`Br.CCN(CC)CCOC(=O)C(C)c1ccc(-c2ccccc2)c(F)c1` (stereo not shown) [B-1-4, 2-(diethylamino)ethyl 2-(2-fluoro-4-biphenyl)propionate•HBr salt] gave a Purity ([1]; 18 month) of 98.1 ± 0.1, a Purity ([1]; 24 month) of 97.9 ± 0.1 and a Purity ([1]; Day 0) of 98.6 ± 0.2.

For `CCN(CC)CCOC(=O)[C@H](C)c1ccc2cc(OC)ccc2c1.O=C(O)CC(O)(CC(=O)O)C(=O)O` (racemic) [C-3, 2-(diethylamino)ethyl (R,S)-2-(6-methoxy-2-naphthyl) propionate•citric acid salt], the “Purity(%) from day 0-28” value [3, 5] was 68.2 ± 0.4%, the “Purity(%) from day 0-28” value [3, 6] was 80.1 ± 0.3% and the “Purity(%) from day 0-28” value [3, 7] was 90.3 ± 0.3%. For the same molecule, the “Purity(%) from day 0-28” value [3, 8] was 96.8 ± 0.2%, the “Purity(%) from day 0-28” value ([3]; day 28, pH 4.0, 7% solution in water) was 97.1 ± 0.2% and the “Purity(%) from day 0-28” value ([3]; day 28, pH 4.3, 7% solution in water) was 97.1 ± 0.3%. The “Purity(%) from day 0-28” value ([3]; day 28, pH 4.6, 7% solution in water) was 97.0 ± 0.3%, the “Purity(%) from day 0-28” value [3, 9] was 96.0 ± 0.3% and the “Purity(%) from day 0-28” value [3, 10] was 88.4 ± 0.3%. The “Purity(%) from day 0-28” value [3, 11] was 55.8 ± 0.4%, the “Purity(%) from day 0-28” value [3, 12] was 35.8 ± 0.5% and the Purity ([1]; 12 month) was 98.1 ± 0.3. It also gave a Purity ([1]; 18 month) of 97.9 ± 0.4 and a Purity ([1]; 24 month) of 97.8 ± 0.3.
